# Assays:
# Assay type in all cases: in vivo, Scid CB-17 mice
# KG1a tumors (AML) = assay: Antitumor activity in mice bearing KG1a tumors (AML)
# From the text: (§1) Scid CB-17 mice (supplied by Charles River, Lyon, France) are used. At the time of the randomization, the animals have an average weight of 20-22 g and are aged from 6 to 9 weeks.
# (§2) The day before the first administration of a compound, the animals bearing tumors are classified into several groups. Only animals bearing two tumors which are palpable or of determined weight are selected and distributed at random into the treated groups and control groups. Each group is made up of 5 to 10 mice. At the start of the study, each cage is labeled with a card indicating the day of implantation of the tumour, the type of tumour, the compound tested and the mode of administration.
# (§3) The implantation of the tumors is effected as follows: after removal of the tumour from the donor mouse, the tumour is cut up into fragments 2 to 3 mm in diameter, placed in a saline phosphate buffer, and implanted bilaterally with an adapted trocar.
# (§4) The volume of the tumors and its conversion into weight is estimated according to the formula: weight: (in mg)=(a×b^2)/2, where a and b are respectively the length and the width of the tumour (mm). The tumors are measured twice a week with calipers. In the following tables, P indicates the weight of the tumors at the start of treatment.
# (§5) T is the median time in days for reaching a defined value (e.g. 1000 mg) in the treated group and C is the median time in days for reaching this same value in the control group. A value of log10 of the cells killed>0.7 is indicative of antitumor activity of the molecule. […] The median weight of the tumors of each treated group is then determined.
# IV/IP is understood to mean administration by the intravenous route followed by an intraperitoneal route; here the transition is effected between day 15 and day 16. IV/oral is understood to mean administration by the intravenous route followed by an oral route; here the transition is effected between day 30 and day 31. […] On day 31, the compound is administered by the oral route until day 44.
# KG1 tumours (AML) = assay: Antitumor activity in mice bearing KG1 tumours (AML)
# From the text: as §1, §2, §3, §4
# Two parameters for estimation of antitumor activity are used: log10 of the cells killed (Log cell kill) and T/C. • Calculation of log10 of the cells killed=(T−C)/3.32×Td, where (T−C) is the delay in tumour growth and Td the volume (and weight) doubling time of the tumour (expressed in days). T is the median time in days for reaching a defined value (e.g. 1000 mg) in the treated group and C is the median time in days for reaching this same value in the control group. A value of log10 of the cells killed>0.7 is indicative of antitumor activity of the molecule. A value of log10 of the cells killed >2.8 is indicative of a very high antitumor activity of the molecule (J Liang et al, Invest New Drugs 2005; 23(3):213-24). • Calculation of T/C: the treated groups and the control groups are evaluated when the tumors of the control group reach approximately 1000 mg (median value of the group). The median weight of the tumors of each treated group is then determined. The T/C value ((weight of the tumors of the treated groups/weight of the tumors of the control groups)×100) in percent is an indication of the antitumor efficacy: a T/C value less than or equal to 42% is indicative of anti-tumour activity according to the American National Cancer Institute (NCI). A T/C value less than 10% is representative of very high anti-tumour activity. • The number of mice no longer displaying tumors a long time after the last administration (TFS=tumour-free survival), and considered as cured, can also constitute a parameter of activity of the molecule. • Evaluation of the toxicity of the compound tested: a weight loss greater than or equal to 20% or the appearance of any lethality in connection with the compound is considered as an excessively toxic treatment. As examples, the results obtained with the compound N-[2-(2,1,3-benzothiadiazol-5-ylamino)-6-(2,6-dichlorophenyl)pyrido[2,3-d]pyrimidin-7-yl]-N′-(1,1-dimethyl-ethyl)-urea are given in the following Tables 1 to 7.
# (§6) IV is understood to mean administration by the intravenous route.
# The cell line KG-1 (AML) is described by Koeffler et al., Science 200: 1153-1154 (1978), and supplied by DSMZ ACC No. 14.
# CTV1 tumours (AML) = assay: Antitumor activity in mice bearing CTV1 tumours (AML); details: 25 mg/kg/injection IV/IP, days 17-23, 25-26/28-32, total dose 350 mg/kg, P 100 mg
# From the text: as §1
# as §2, with “administration. […]” for “administration.”
# (§7) The volume of the tumors and its conversion into weight is estimated according to the formula: weight: (in mg)=(a×b^2)/2, where a and b are respectively the length and the width of the tumour (mm). The tumors are measured twice a week with calipers. […]
# Two parameters for estimation of antitumor activity are used: log10 of the cells killed (Log cell kill) and T/C. • Calculation of log10 of the cells killed=(T−C)/3.32×Td, where (T−C) is the delay in tumour growth and Td the volume (and weight) doubling time of the tumour (expressed in days). […] The median weight of the tumors of each treated group is then determined. […]
# Kasumi1 tumours (AML) = assay: Antitumor activity in mice bearing Kasumi1 tumours (AML); details: days 25-31, 33, 34, P 178 mg
# From the text: as §1, §2, §3, §4, §5, §6
# CMLT1 tumours (CML) = assay: Antitumor activity in mice bearing CMLT1 tumours (CML); details: 20 mg/kg/injection IV/IP, days 3-7/10-14, 17-21, total dose 300 mg/kg
# From the text: as §1, §2, §3, §4
# (§8) Two parameters for estimation of antitumor activity are used: log10 of the cells killed (Log cell kill) and T/C. • Calculation of log10 of the cells killed=(T−C)/3.32×Td, where (T−C) is the delay in tumour growth and Td the volume (and weight) doubling time of the tumour (expressed in days). […] A value of log10 of the cells killed >2.8 is indicative of a very high antitumor activity of the molecule (J Liang et al, Invest New Drugs 2005; 23(3):213-24). • Calculation of T/C: the treated groups and the control groups are evaluated when the tumors of the control group reach approximately 1000 mg (median value of the group). The median weight of the tumors of each treated group is then determined. […]
# K562 tumours (CML) = assay: Antitumor activity in mice bearing K562 tumours (CML); details: 25 mg/kg/injection IV/IP, days 4-11/12-25, total dose 550 mg/kg
# From the text: as §1, §2, §3, §4, §8
# EOL-1 tumours (AML) = assay: Antitumor activity in mice bearing EOL-1 tumours (AML); details: days 8-10, 12-17, 19, total dose 300 mg/kg, P 133-146 mg
# From the text: as §1
# as §2, with “administration. […]” for “administration.”
# as §7
# T is the median time in days for reaching a defined value (e.g. 1000 mg) in the treated group and C is the median time in days for reaching this same value in the control group. […] The median weight of the tumors of each treated group is then determined.
# [1] = 17 mg/kg/injection IV, days 19-38, total dose 255 mg/kg, P 127-130 mg
smiles,measurement,setting,value
"CC(C)(C)NC(=O)Nc1nc2nc(Nc3ccc4nsnc4c3)ncc2cc1-c1c(Cl)cccc1Cl [N-[2-(2,1,3-benzothiadiazol-5-ylamino)-6-(2,6-dichlorophenyl)pyrido[2,3-d]pyrimidin-7-yl]-N′-(1,1-dimethylethyl)-urea]",T/C at 22 days,"KG1a tumors (AML); 17 mg/kg/injection IV/IP, days 5-13, 15/16, 18-20, 22, 24-26, 29, 31, total dose 340 mg/kg, P 91-98 mg, DMSO 5% Tween80 10% H2O 85%",0%
same,Log10 cells killed,"KG1a tumors (AML); 17 mg/kg/injection IV/IP, days 5-31, total dose 340 mg/kg, P 91-98 mg, DMSO 5% Tween80 10% H2O 85%",>>6
same,Log10 cells killed,"KG1a tumors (AML); 25 mg/kg IV days 22-30 then 40 x 2 mg/kg oral days 31-44, total dose 225/1120 mg/kg, P 1000 mg, DMSO 5% Tween80 10% H2O 85%",>>6
same,Log10 cells killed,"KG1a tumors (AML); 40 x 2 mg/kg (2 administrations per treatment day) oral, days 15-44, total dose 2400 mg/kg, P 147 mg",3.0
same,T/C at 22 days,"KG1a tumors (AML); 40 x 2 mg/kg (2 administrations per treatment day) oral, days 15-44, total dose 2400 mg/kg, P 147 mg, DMSO 5% Tween80 10% H2O 85%",14.9%
same,tumour weight at the end of second treatment period (tumors no longer measurable),"KG1a tumors (AML); after IV days 22-30 (25 mg/kg) then oral route day 31 until day 44, P 1000 mg",< 63 mg
same,TFS (tumour-free survival),"KG1a tumors (AML); on day 120, 17 mg/kg/injection IV/IP, days 5-31, total dose 340 mg/kg, P 91-98 mg",80% on
same,reduction in the tumour weight,"KG1a tumors (AML); tumors at very advanced stage (1000 mg), IV route days 22 to 30 at 25 mg/kg",80%
same,T/C at 28 days,"KG1 tumours (AML); 17 mg/kg/injection IV, days 19-28, 30, 32, 34, 36, 38, total dose 255 mg/kg, P 127-130 mg, DMSO 5% Tween80 10% H2O 85%",0%
same,Log10 cells killed,KG1 tumours (AML); [1],>6
same,TFS (tumour-free survival),KG1 tumours (AML); [1],(100%)
same,T/C at 28 days,"KG1 tumours (AML); 40 x 2 mg/kg (2 administrations per treatment day) oral, days 18-24, 26, 28, 30, 32, 34, 36, 38, 40, total dose 1200 mg/kg, P 130-132 mg, Labrasol 21% Solutol 5% HCl 0.001N 74%",0%
same,Log10 cells killed,"KG1 tumours (AML); 40 x 2 mg/kg oral, days 18-40, total dose 1200 mg/kg, P 130-132 mg",4.3
same,Log10 cells killed,CTV1 tumours (AML),1.7
same,T/C at 25 days,CTV1 tumours (AML); PEG400 22% Solutol 5% G5 73%,1.6%
same,T/C at 28 days,"Kasumi1 tumours (AML); 15 x 2 mg/kg (two administrations per treatment day) IV, total dose 255 mg/kg, PEG400 22% Solutol 5% G5 73%",20%
same,Log10 cells killed,"Kasumi1 tumours (AML); 15 x 2 mg/kg IV, total dose 255 mg/kg",3
same,T/C at 28 days,"Kasumi1 tumours (AML); 40 x 2 mg/kg (two administrations per treatment day) oral, total dose 680 mg/kg, Labrasol 21% Solutol 5% HCl 0.001N 74%",17.5%
same,Log10 cells killed,"Kasumi1 tumours (AML); 40 x 2 mg/kg oral, total dose 680 mg/kg",2.4
same,Log10 cells killed,CMLT1 tumours (CML); P palpable ~30 mg,1.5
same,T/C at 22 days,"CMLT1 tumours (CML); P palpable ~30 mg, DMSO 5% Tween80 10% H2O 85%",1%
same,TFS (tumour-free survival),CMLT1 tumours (CML); on day 42,(50%
same,Log10 cells killed,K562 tumours (CML); P 63-80 mg,4.2
same,T/C at 28 days,"K562 tumours (CML); P 63-80 mg, DMSO 5% Tween80 10% H2O 85%",0%
same,TFS (tumour-free survival),K562 tumours (CML); on day 130,(43%
same,T/C at 14 days,"EOL-1 tumours (AML); 15 x 2 mg/kg (2 administrations per treatment day) IP, PEG400 22% Solutol 5% G5 73%",5.7%
same,Log10 cells killed,EOL-1 tumours (AML); 15 x 2 mg/kg IP,3.1

# Reference: US8236811B2, “Therapeutic use for treating of leukemia” (Sanofi, priority 2006, dated 2012)
